Measurements reported in patent US9815841B2, “Compounds” (GLAXOSMITHKLINE INTELLECTUAL PROPERTY DEVELOPMENT LIMITED, priority 2014, dated 2017).

Biological target: T1, recombinant full length LRRK2 over-expressed in SH-SY5Y cells (Homo sapiens, UniProt Q5S007)
T1 construct: A BacMam virus expressing full length recombinant LRRK2 was purchased from Invitrogen; host or cells: SH-SY5Y human neuroblastoma cells transduced with BacMam LRRK2 virus
Experiment: Recombinant cellular LRRK2 AlphaScreen assay (LRRK2 Ser935 phosphorylation)
Format: cell-based
Conditions: SH-SY5Y cells with BacMam LRRK2, 60 minutes compound incubation, read-out: recombinant cellcular LRRK2 alphaScreen assay (pIC50) (converted)
Method: Recombinant Cellular LRRK2 AlphaScreen Assay
A BacMam virus expressing full length recombinant LRRK2 was purchased from Invitrogen and amplified by inoculation of SF-9 cells at MOI 0.3 for 4-5 days in Sf-900 III SFM medium supplemented with 3% fetal bovine serum. Infected cell cultures were then centrifuged at 2000 g for 20 minutes, viral supernatant titer determined by anti-gp64 plaque assay and stored at 4° C.
Affinity-purified anti-phospho LRRK2 Ser935 sheep polyclonal antibody (Dzamko et al., 2010, Biochem. J. 430: 405-413) was biotinylated by standard methods (PerkinElmer). Anti-LRRK2 rabbit polyclonal antibody was purchased from Novus Biologicals. AlphaScreen Protein A IgG Kit (including acceptor and donor beads) was purchased from Perkin Elmer.
SH-SY5Y cells were grown in DMEM/F12 medium with 10% dialysed fetal bovine serum and harvested by treatment with 0.5% trypsin-EDTA for 5 minutes at […] followed by centrifugation at 1000 rpm for 4 minutes. The cell pellet was resuspended in Opti-MEM reduced serum media (Invitrogen) at 200,000 cells/ml and mixed with the BacMam LRRK2 virus at MOI=50. 50 μl cell solutions were then dispensed to each well of a 384-well plate and incubated at 37° C., 5% CO2 for 24 hours.
Serial dilutions of test compounds were prepared in Opti-MEM reduced serum media (Invitrogen) and 5.6 ul transferred from compound plate to cell assay plate to achieve a top final assay concentration of 10 uM. DMSO was used in certain wells as controls. Cells were incubated at 37° C., 5% CO2 for 60 minutes. The medium was then removed and cells lysed by addition of 20 ul cell lysis buffer (Cell Signaling Technology) and incubation at 4° C. for 20 minutes. 10 ul of antibody/acceptor bead mix [(1/1000 biotinylated-pS935 LRRK2 antibody, 1/1000 total-LRRK2 antibody, 1/100 Acceptor beads in AlphaScreen detection buffer (25 mM Hepes (pH 7.4), 0.5% Triton X-100, 1 mg/ml Dextran 500 and 0.1% BSA)] was then added to each well and plates incubated for 2 hours at ambient temperature in the dark. 10 μl of donor beads solution (1/33.3 donor beads in AlphaScreen detection buffer) was then added to each well. Following incubation for a further 2 hours at ambient temperature in the dark, plates were read on an EnVision™ plate reader at emission 520-620 nm with excitation 680 nm. Dose response curve data was based on sigmoidal dose-response model.

T1 sequence (Q5S007 whole entry): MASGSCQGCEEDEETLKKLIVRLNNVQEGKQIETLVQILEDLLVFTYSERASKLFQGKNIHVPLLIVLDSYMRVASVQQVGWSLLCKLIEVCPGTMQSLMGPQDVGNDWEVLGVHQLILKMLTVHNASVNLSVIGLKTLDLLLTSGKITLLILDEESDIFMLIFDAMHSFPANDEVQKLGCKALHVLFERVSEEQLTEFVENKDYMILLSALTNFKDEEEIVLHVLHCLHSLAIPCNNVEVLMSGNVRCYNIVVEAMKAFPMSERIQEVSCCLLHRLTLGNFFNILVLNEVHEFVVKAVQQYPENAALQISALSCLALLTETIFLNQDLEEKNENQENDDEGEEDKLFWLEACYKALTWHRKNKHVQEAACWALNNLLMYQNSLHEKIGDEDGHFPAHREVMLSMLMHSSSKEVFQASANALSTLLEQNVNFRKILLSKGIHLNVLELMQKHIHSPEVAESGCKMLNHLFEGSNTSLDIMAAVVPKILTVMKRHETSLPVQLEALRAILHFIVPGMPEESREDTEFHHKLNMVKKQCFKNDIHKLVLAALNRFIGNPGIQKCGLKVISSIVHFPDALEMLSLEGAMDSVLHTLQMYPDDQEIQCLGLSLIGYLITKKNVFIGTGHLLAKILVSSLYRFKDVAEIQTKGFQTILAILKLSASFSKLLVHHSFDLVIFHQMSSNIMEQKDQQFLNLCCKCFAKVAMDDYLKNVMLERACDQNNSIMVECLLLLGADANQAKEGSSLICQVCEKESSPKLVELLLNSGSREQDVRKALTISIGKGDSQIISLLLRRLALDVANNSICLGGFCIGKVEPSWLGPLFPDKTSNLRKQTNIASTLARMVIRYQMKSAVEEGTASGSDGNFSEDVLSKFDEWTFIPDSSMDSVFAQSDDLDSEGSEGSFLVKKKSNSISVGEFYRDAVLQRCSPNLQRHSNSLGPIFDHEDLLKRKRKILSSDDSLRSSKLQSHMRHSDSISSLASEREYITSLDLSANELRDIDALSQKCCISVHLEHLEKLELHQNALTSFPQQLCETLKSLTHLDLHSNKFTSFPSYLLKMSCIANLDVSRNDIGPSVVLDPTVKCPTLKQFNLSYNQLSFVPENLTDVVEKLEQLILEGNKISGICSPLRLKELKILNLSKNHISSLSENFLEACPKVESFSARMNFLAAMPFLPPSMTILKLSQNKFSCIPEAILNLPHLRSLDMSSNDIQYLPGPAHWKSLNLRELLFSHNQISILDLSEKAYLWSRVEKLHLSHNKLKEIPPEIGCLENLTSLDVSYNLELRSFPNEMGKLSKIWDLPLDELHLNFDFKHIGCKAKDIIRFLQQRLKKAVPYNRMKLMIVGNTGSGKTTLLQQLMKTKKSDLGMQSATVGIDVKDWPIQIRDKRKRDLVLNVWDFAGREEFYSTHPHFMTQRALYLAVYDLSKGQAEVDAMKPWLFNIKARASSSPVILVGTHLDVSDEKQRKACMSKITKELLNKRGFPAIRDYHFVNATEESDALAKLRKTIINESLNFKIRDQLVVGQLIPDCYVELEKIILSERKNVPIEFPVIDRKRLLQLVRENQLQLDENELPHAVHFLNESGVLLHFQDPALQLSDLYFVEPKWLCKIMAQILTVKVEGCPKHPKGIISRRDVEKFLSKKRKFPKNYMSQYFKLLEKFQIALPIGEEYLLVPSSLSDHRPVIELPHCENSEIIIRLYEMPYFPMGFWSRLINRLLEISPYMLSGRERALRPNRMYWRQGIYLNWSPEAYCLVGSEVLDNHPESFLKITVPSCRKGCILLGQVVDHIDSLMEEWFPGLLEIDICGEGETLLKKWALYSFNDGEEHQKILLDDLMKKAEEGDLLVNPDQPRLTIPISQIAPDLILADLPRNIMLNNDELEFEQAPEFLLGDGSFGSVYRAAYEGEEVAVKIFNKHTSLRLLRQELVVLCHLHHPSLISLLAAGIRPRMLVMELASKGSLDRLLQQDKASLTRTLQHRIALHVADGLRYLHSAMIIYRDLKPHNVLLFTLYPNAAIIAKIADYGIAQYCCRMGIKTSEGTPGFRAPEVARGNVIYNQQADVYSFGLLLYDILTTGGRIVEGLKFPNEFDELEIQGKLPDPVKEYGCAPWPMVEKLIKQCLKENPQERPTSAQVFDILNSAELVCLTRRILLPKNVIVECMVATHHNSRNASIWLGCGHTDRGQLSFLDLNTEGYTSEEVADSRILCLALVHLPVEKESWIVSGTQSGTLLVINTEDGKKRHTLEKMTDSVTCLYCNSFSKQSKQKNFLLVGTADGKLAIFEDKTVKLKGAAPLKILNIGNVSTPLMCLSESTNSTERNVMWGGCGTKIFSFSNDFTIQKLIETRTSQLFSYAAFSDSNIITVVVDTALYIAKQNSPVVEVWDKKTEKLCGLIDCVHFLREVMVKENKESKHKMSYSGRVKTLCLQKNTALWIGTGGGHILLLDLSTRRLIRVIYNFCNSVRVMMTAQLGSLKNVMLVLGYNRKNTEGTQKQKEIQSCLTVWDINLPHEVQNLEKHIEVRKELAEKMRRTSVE

| SMILES | IC50 |
| --- | --- |
| CCOc1nc(Nc2ccc(C(=O)N3CCOCC3)cc2OC)nc2[nH]ccc12 [Example E1, (4-((4-ethoxy-7H-pyrrolo-[2,3-d]-pyrimidin-2-yl)amino)-3-methoxyphenyl)(morpholino)methanone] | 158 nM |
| CCOc1nc(Nc2cc(F)c(C(=O)N3CCOCC3)cc2OC)nc2[nH]ccc12 [Example E2, (4-((4-ethoxy-7H-pyrrolo-[2,3-d]-pyrimidin-2-yl)amino)-2-fluoro-5-methoxyphenyl)(morpholino)methanone] | 200 nM |
| CCOc1nc(Nc2ccc(C(=O)N3CCN(C)CC3)cc2OC)nc2[nH]ccc12 [Example E3, (4-((4-ethoxy-7H-pyrrolo-[2,3-d]-pyrimidin-2-yl)amino)-3-methoxyphenyl)(4-methylpiperazin-1-yl)-methanone] | 158 nM |
| CCOc1nc(Nc2ccc(C(=O)N3CCC(N4CCN(C)CC4)CC3)cc2OC)nc2[nH]ccc12 [Example E4, (4-((4-ethoxy-7H-pyrrolo-[2,3-d]pyrimidin-2-yl)amino)-3-methoxyphenyl)(4-(4-methylpiperazin-1-yl)-piperidin-1-yl)-methanone] | ≤ 100 nM |
| CCOc1nc(Nc2ccc(C(=O)N3CCOCC3)cc2)nc2[nH]ccc12 [Example E9, (4-((4-ethoxy-7H-pyrrolo-[2,3-d]pyrimidin-2-yl)amino)phenyl)(morpholino)methanone] | ≤ 100 nM |
| CCOc1nc(Nc2ccc(C(=O)N3CCC4(CC3)CN(C)C4)cc2OC)nc2[nH]ccc12 [Example E13, (4-((4-ethoxy-7H-pyrrolo-[2,3-d]-pyrimidin-2-yl)amino)-3-methoxyphenyl)(2-methyl-2,7-diazaspiro-[3.5]-nonan-7-yl)methanone] | ≤ 100 nM |

Further lines, results first:

| IC50 | SMILES |
| --- | --- |
| 398 nM | CCOc1nc(Nc2ccc(C(=O)N3CCC4(CC3)CC4)cc2OC)nc2[nH]ccc12 [Example E16, (4-((4-ethoxy-7H-pyrrolo-[2,3-d]-pyrimidin-2-yl)amino)-3-methoxyphenyl)(6-azaspiro-[2.5]octan-6-yl)methanone] |
| 200 nM | CCOc1cc(C(=O)N2CCOCC2)ccc1Nc1nc(OCC)c2cc[nH]c2n1 [Example E20, (3-ethoxy-4-((4-ethoxy-7H-pyrrolo-[2,3-d]pyrimidin-2-yl)amino)phenyl)(morpholino)methanone] |
| 398 nM | CCOc1nc(Nc2ccc(C(=O)N3CCN(C)CC3)cc2OC(C)C)nc2[nH]ccc12 [Example E24, (4-((4-ethoxy-7H-pyrrolo-[2,3-d]pyrimidin-2-yl)amino)-3-isopropoxyphenyl)(4-methylpiperazin-1-yl)methanone] |
| ≤ 100 nM | CCOc1nc(Nc2ccc(C(=O)N3CCOC[C@@H]3C)cc2OC)nc2[nH]ccc12 [Example E27, (S)-(4-((4-ethoxy-7H-pyrrolo-[2,3-d]pyrimidin-2-yl)amino)-3-methoxyphenyl)(3-methylmorpholino)methanone] |
| ≤ 100 nM | CCOc1nc(Nc2ccc(C(=O)N3CCN(C)CC3)cc2OC)nc2[nH]cc(C)c12 [Example E31, (4-((4-ethoxy-5-methyl-7H-pyrrolo-[2,3-d]pyrimidin-2-yl)amino)-3-methoxyphenyl)(4-methylpiperazin-1-yl)methanone] |
| 50.1 nM | CCOc1nc(Nc2ccc(C(=O)N3CCN(C)C[C@H]3C)cc2OC)nc2[nH]ccc12 [Example E40, (R)-(2,4-dimethylpiperazin-1-yl)(4-((4-ethoxy-7H-pyrrolo-[2,3-d]-pyrimidin-2-yl)-amino)-3-methoxyphenyl)methanone] |
